Results as given in patent US12023348B2, “EGR1 targeting molecules for the treatment of inflammatory and hyperproliferative conditions” (The Medical Research, Infrastructure and Health Services …, priority 2015, dated 2024).
Where a name gives a salt, the structure may show the parent alone.

What was measured:
SAMD9 promoter = test: High-throughput luciferase reporter screen in HeLa line stably expressing 585 bp SAMD9 promoter fragment; type: cell-based, human; conditions: fold increase in promoter activity by luciferase assay vs cells treated with vehicle only, test drugs 10 μM, 24 hours; for fold induction at 10 µM: Homo sapiens, HeLa, read-out: SAMD9 expression fold change in HeLa reporter assay
Method: HeLa cell lines stably expressing the constructs were generated under neomycin selection. Briefly, pGL4.17 containing a SAMD9 promoter fragment spanning 585 bp upstream to the TSS and an empty pGL4.17 vector were transfected into HeLa cells. Forty eight hours after transfection, standard medium was replaced with medium containing 600 μg/ml G418 (Sigma-Aldrich), cells were kept under G418 selection and the selective medium was replaced approximately every 2-3 days. After two passages, colonies of stable cells were isolated, expanded and frozen for further use.
Test drugs were dispensed at a concentration of 10 μM by a robotic system into 96-well plates containing 9000 cells/well expressing the pGL4.17 reporter construct carrying a 585 bp SAMD9 promoter fragment operably linked to luciferase gene or the empty pGL4.17 luciferase construct (Promega cat. no. E6721). Medium was removed after 24 hours and the cells subjected to Steady-Glo luciferase lysis-substrate solution assay (Promega) as described above. Liquid handling was done with the Tecan (Tecan) Freedom 150 (Robotic & MCA liquid Handling System) and the luciferase reading was done with a robot integrated Tecan Infinite® M1000 reader.
This cell line was then used to robotically screen a total of 1496 compounds obtained from the National Cancer Institute Diversity Set III and Oncology Drugs Set III small molecule libraries.

SAMD9 = SAMD9 RNA expression by qRT-PCR in HeLa cells; type: cell-based, human; conditions: fold increase in RNA gene expression vs cells treated with vehicle only
Method: HeLa cells were cultured in DMEM 4.5 g/l glucose medium containing 10% FCS, 1% L-glutamine and 1% penicillin and streptomycin (Biological Industries) and grown at 37° C. and 5% CO2.
Of note, when cells were incubated with CaCx and ApDx (NCI, MA USA), they were grown in the appropriate medium with 0.1% FCS only.
RNA was extracted from cell cultures using an RNA extraction kit (Roche Diagnostics, Mahheim, Germany). cDNA was synthesized from 500 ng of total RNA using the Verso cDNA kit (Thermo Fisher Scientific, Waltham, MA, USA). cDNA PCR amplification was carried out using the Fast SYBR Green Master Mix in a StepOnePlus™ Real-Time PCR System (Applied Biosystems, Foster City, CA, USA) with gene-specific intron-crossing oligonucleotide pairs listed in Table 1 (below). For quantification, standard curves were obtained using serially diluted cDNA amplified in the same qRT-PCR run. The melting temperature (Tm) of the amplified products was measured to confirm the specificity of the reaction conditions. Cycling conditions were as follows: 95° C. for 10 minutes, 95° C. for 10 seconds, 62° C. for 15 seconds, and 72° C. for 25 seconds for a total of 40 cycles. Each sample was analyzed in triplicate. mRNA expression level for target gene was normalized to GAPDH. The results are based the amount of target, normalized to an endogenous reference (IACTB) and relative to a calibrator, as calculated by 2-ΔΔCT. All samples were run in triplicate. The expression levels of target genes were expressed as mRNA relative units.
The potential ability of these 31 molecules to induce SAMD9 expression in cell cultures was then scrutinized.

Row | SAMD9 expression fold change in HeLa reporter assay (SAMD9 promoter) [fold] | Compound | fold induction at 10 µM (SAMD9 promoter) | SAMD9 expression fold change in HeLa cells (SAMD9) [fold]
1 | – | COc1cc2c3c(n(C)c(=O)c2cc1OC)-c1cc2c(cc1C3=O)OCO2 [Compound 314622, 5H-[1,3]Dioxolo[5,6]indeno[1,2-c]isoquinoline-5,12-dione, 2,3-dimethoxy-6-methyl-] | 2.31 | 2.51
2 | – | Cc1cc(Cl)ccc1N1C(=O)C(=O)C(c2nc3ccccc3o2)C(=O)C1=O [Compound 623051, 4-(1,3-Benzoxazol-2-yl)-1-(4-chloro-2-methylphenyl)-2,3,5,6-piperidinetetrone] | 2.74 | 0.97
3 | – | CN(CCc1ccccn1)c1ccc2c(c1)C(=O)c1ccccc1-2 [Compound 24048, 2-(methyl(2-(2-pyridinyl)ethyl)amino)-9H-fluoren-9-one] | 2.84 | 1.62
4 | – | Cc1c2cnccc2c(C)c2c1c1ccccc1n2CCOC(=O)c1ccccc1 [Compound 163443, 2-(5,11-dimethyl-6H-pyrido [4,3-b]carbazol-6-yl) ethyl benzoate] | 2.24 | 6.49
5 | – | C[C@@H](CSC(=O)c1ccccc1)C(=O)N1c2ccccc2C[C@@H]1C(=O)O [Compound 604535, (2R)-1-[(2R)-2-methyl-3-phenylcarbonylsulfanyl-propanoyl]-2,3-dihydroindole-2-carboxylic acid] | 2.26 | 1.07
6 | – | O=C1Oc2ccccc2C(=O)/C1=C1/C=C(c2ccccc2)SS1 [Compound 293927, (3E)-3-(5-phenyl-3H-1,2-dithiol-3-ylidene)-2H-chromene-2,4(3H)-dione] | 2.82 | 1.77
7 | – | Cc1cccc(NC(=O)C=Cc2ccc([N+](=O)[O-])cc2)c1 [Compound 139109, N-(3-methylphenyl)-3-(4-nitrophenyl)acrylamide] | 2.03 | 0.72
8 | – | O=C1C(O)=C(CC=C(Cl)Cl)C(=O)c2ccccc21 [Compound 126771, Dichlorolawsone] | 2.23 | 3.27
9 | – | N#CC(NCc1cccc(CNC(C#N)c2ccccc2)c1)c1ccccc1 (stereo not shown) [Compound 681730, 2,2′-(1,3-phenylenebis (methylene))bis(azanediyl)bis(2-phenylacetonitrile)] | 2.48 | 1.6
10 | – | CCN(CC)CCNc1ccc2nc(C)n3c4ccc(OC)cc4c(=O)c1c23.Cl [Compound 637993, 5-{[2-(diethylamino)ethyl]amino}-8-methoxy-1-methyl-6h-imidazo[4,5,1-de] acridin-6-one hydrochloride (1:1)] | 3.7 | 6.34
11 | – | Nc1ncnc2c1nc(Cl)n2[C@@H]1O[C@@H]2COP(=O)(O)O[C@H]2[C@H]1O [Compound 284751, Adenosine, 8-chloro-, cyclic 3′,5′-(hydrogen phosphate)] | 2.14 | 0.87
12 | – | COc1ccc(/C=C2\CCc3ccccc3C2=O)cc1OC [Compound 643175, 2-(3,4-Dimethoxybenzylidene)-1-tetralone] | 2.47 | 0.89
13 | – | COc1ccc(/C=C2\Cc3ccccc3C2=O)cc1OC [Compound 643174, 2-(3,4-Dimethoxybenzylidene)-1-indanone] | 2.17 | 1.29
14 | 2.71 | COc1ccc2c(c1[N+](=O)[O-])CC[C@@H]1[C@@H]2CC[C@]2(C)C(=O)CC[C@@H]12 [Compound 321803, 4-Nitroestrone 3-methyl ether] | – | –
15 | – | CCN(CC)CCOc1ccccc1/C=C/c1noc2ccccc12 [Compound 601101, 2-(2-(2-(1,2-Benzisoxazol-3-yl)vinyl)phenoxy)-N,N-diethylethanamine hydrochloride] | 2.13 | –
